Measured values taken from article PMC10987480, “Biological and mutational analyses of CXCR4–antagonist interactions and design of new antagonistic analogs” (Bioscience Reports, 2023).
Positions of bridges follow the written chain, without caps; N, C: chain ends. Non-standard residues stand in square brackets, D forms with d. Chains are numbered I, II in the order given. No end group written: not given here.

What was measured:
[1] = target: T1, CXCR4 Y45A (Homo sapiens, UniProt P61073, Y45A); assay: Competitive binding to CXCR4 mutant Y45A (12G5, CHO cells); conditions: TM1, class of reduction vs wild-type CXCR4, 12G5 competition, averages of at least three independent experiments
T1 construct: expressed in transfected cells
T1 sequence (P61073 whole entry Y45A): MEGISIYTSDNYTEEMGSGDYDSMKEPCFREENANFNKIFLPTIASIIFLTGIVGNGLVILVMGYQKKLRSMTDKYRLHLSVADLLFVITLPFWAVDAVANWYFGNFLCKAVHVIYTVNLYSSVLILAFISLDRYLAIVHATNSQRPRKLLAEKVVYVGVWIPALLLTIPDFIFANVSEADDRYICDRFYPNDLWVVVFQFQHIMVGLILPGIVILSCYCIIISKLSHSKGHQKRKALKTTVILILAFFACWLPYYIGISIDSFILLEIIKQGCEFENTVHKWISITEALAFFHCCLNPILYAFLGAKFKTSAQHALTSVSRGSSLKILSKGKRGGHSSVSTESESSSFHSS
Experimental: (§1) Plasmid pcDNA3-CXCR4 and mutated pcDNA3-CXCR4 were extracted and transfected into CHO cells using Lipofectamine 2000 according to the manufacturer’s guidelines. The selective medium containing G418 at a concentration of 1.2 mg/ml was applied to isolate stably transfected cells. CHO cells expressing wild-type CXCR4 and mutant CXCR4 were obtained using fluorescence-activated cell sorting (FACS).
(§2) All of the CXCR4 mutants were prepared using PCR technology. Briefly, pairs of asymmetrical primers containing the desired amino acid mutations (Supplementary Tables S1 and S2), each complementary to opposite strands of the pcDNA3–CXCR4, were designed for amplification by Q5® High-Fidelity DNA polymerase and the generation of mutated constructs. The methylated pcDNA3–CXCR4 templates were digested by DpnI. The mutated pcDNA3–CXCR4 was transformed into competent E. coli TOP10 for long-term storage and amplification.
(§3) The procedure for the CXCR4 competitive binding experiments was published previously. Briefly, CXCR4 antibody 12G5 (250 ng/ml) was incubated with 5 × 10^5 cells and varying concentrations of unlabeled compounds in a final volume of 100 μl of assay buffer (PBS with 0.5% BSA and 0.05% NaN3) in 96-well plates for 40 min on ice, after being washed with assay buffer once. The cells were incubated with FITC-conjugated second antibody IgG for 30 min on ice, then washed with assay buffer three times. The fluorescence intensity was measured for excitation at 485 nm and emission at 535 nm using multimode plate reader (PerkinElmer). The IC50 values were calculated using graphpad Prism 7. Experiments were performed at least three times.

[2] = target: T2, CXCR4 D97A (Homo sapiens, UniProt P61073, D97A); assay: Competitive binding to CXCR4 mutant D97A (12G5, CHO cells); conditions: TM2, class of reduction vs wild-type CXCR4, 12G5 competition, averages of at least three independent experiments
T2 construct: expressed in transfected cells
T2 sequence (P61073 whole entry D97A): as the sequence (P61073 whole entry Y45A) above, with A45Y, D97A counted along it
Experimental: as §1, §2, §3

[3] = target: T3, CXCR4 V112A (Homo sapiens, UniProt P61073, V112A); assay: Competitive binding to CXCR4 mutant V112A (12G5, CHO cells); conditions: TM3, class of reduction vs wild-type CXCR4, 12G5 competition, averages of at least three independent experiments
T3 construct: expressed in transfected cells
T3 sequence (P61073 whole entry V112A): as the sequence (P61073 whole entry Y45A) above, with A45Y, V112A counted along it
Experimental: as §1, §2, §3

[4] = target: T4, CXCR4 T117A (Homo sapiens, UniProt P61073, T117A); assay: Competitive binding to CXCR4 mutant T117A (12G5, CHO cells); conditions: TM3, class of reduction vs wild-type CXCR4, 12G5 competition, averages of at least three independent experiments
T4 construct: expressed in transfected cells
T4 sequence (P61073 whole entry T117A): as the sequence (P61073 whole entry Y45A) above, with A45Y, T117A counted along it
Experimental: as §1, §2, §3

[5] = target: T5, CXCR4 W161A (Homo sapiens, UniProt P61073, W161A); assay: Competitive binding to CXCR4 mutant W161A (12G5, CHO cells); conditions: TM4, class of reduction vs wild-type CXCR4, 12G5 competition, averages of at least three independent experiments
T5 construct: expressed in transfected cells
T5 sequence (P61073 whole entry W161A): as the sequence (P61073 whole entry Y45A) above, with A45Y, W161A counted along it
Experimental: as §1, §2, §3

[6] = target: T6, CXCR4 D193A (Homo sapiens, UniProt P61073, D193A); assay: Competitive binding to CXCR4 mutant D193A (12G5, CHO cells); conditions: TM4, class of reduction vs wild-type CXCR4, 12G5 competition, averages of at least three independent experiments
T6 construct: expressed in transfected cells
T6 sequence (P61073 whole entry D193A): as the sequence (P61073 whole entry Y45A) above, with A45Y, D193A counted along it
Experimental: as §1, §2, §3

[7] = target: T7, CXCR4 W195A (Homo sapiens, UniProt P61073, W195A); assay: Competitive binding to CXCR4 mutant W195A (12G5, CHO cells); conditions: TM4, class of reduction vs wild-type CXCR4, 12G5 competition, averages of at least three independent experiments
T7 construct: expressed in transfected cells
T7 sequence (P61073 whole entry W195A): as the sequence (P61073 whole entry Y45A) above, with A45Y, W195A counted along it
Experimental: as §1, §2, §3

[8] = target: T8, CXCR4 H203A (Homo sapiens, UniProt P61073, H203A); assay: Competitive binding to CXCR4 mutant H203A (12G5, CHO cells); conditions: TM5, class of reduction vs wild-type CXCR4, 12G5 competition, averages of at least three independent experiments
T8 construct: expressed in transfected cells
T8 sequence (P61073 whole entry H203A): as the sequence (P61073 whole entry Y45A) above, with A45Y, H203A counted along it
Experimental: as §1, §2, §3

[9] = target: T9, CXCR4 W252A (Homo sapiens, UniProt P61073, W252A); assay: Competitive binding to CXCR4 mutant W252A (12G5, CHO cells); conditions: TM6, class of reduction vs wild-type CXCR4, 12G5 competition, averages of at least three independent experiments
T9 construct: expressed in transfected cells
T9 sequence (P61073 whole entry W252A): as the sequence (P61073 whole entry Y45A) above, with A45Y, W252A counted along it
Experimental: as §1, §2, §3

[10] = target: T10, CXCR4 Y255A (Homo sapiens, UniProt P61073, Y255A); assay: Competitive binding to CXCR4 mutant Y255A (12G5, CHO cells); conditions: TM6, class of reduction vs wild-type CXCR4, 12G5 competition, averages of at least three independent experiments
T10 construct: expressed in transfected cells
T10 sequence (P61073 whole entry Y255A): as the sequence (P61073 whole entry Y45A) above, with A45Y, Y255A counted along it
Experimental: as §1, §2, §3

[11] = target: T11, CXCR4 Y256A (Homo sapiens, UniProt P61073, Y256A); assay: Competitive binding to CXCR4 mutant Y256A (12G5, CHO cells); conditions: TM6, class of reduction vs wild-type CXCR4, 12G5 competition, averages of at least three independent experiments
T11 construct: expressed in transfected cells
T11 sequence (P61073 whole entry Y256A): as the sequence (P61073 whole entry Y45A) above, with A45Y, Y256A counted along it
Experimental: as §1, §2, §3

[12] = target: T12, CXCR4 D262E (Homo sapiens, UniProt P61073, D262E); assay: Competitive binding to CXCR4 mutant D262E (12G5, CHO cells); conditions: TM6, class of reduction vs wild-type CXCR4, 12G5 competition, averages of at least three independent experiments
T12 construct: expressed in transfected cells
T12 sequence (P61073 whole entry D262E): as the sequence (P61073 whole entry Y45A) above, with A45Y, D262E counted along it
Experimental: as §1, §2, §3

[13] = target: T13, CXCR4 I284A (Homo sapiens, UniProt P61073, I284A); assay: Competitive binding to CXCR4 mutant I284A (12G5, CHO cells); conditions: TM7, class of reduction vs wild-type CXCR4, 12G5 competition, averages of at least three independent experiments
T13 construct: expressed in transfected cells
T13 sequence (P61073 whole entry I284A): as the sequence (P61073 whole entry Y45A) above, with A45Y, I284A counted along it
Experimental: as §1, §2, §3

[14] = target: T14, CXCR4 (Homo sapiens, UniProt P61073); assay: SDF-1α-induced cell migration assay in SupT1 cells (transwell); format: cell-based; set-up: host or cells: SupT1 cells; conditions: 2 nM SDF-1α, 30 min pre-incubation, 3 h migration
T14 sequence (P61073 whole entry): as the sequence (P61073 whole entry Y45A) above, with A45Y counted along it
Experimental: (§4) Figure 2 The inhibitory effect of the antagonists on SDF-1α-induced cell chemotaxis and calcium mobilization in SupT1 cells The antagonists and concentrations used were labeled in each lane. (A) The inhibition of cell migration by the noted antagonists. SupT1 cells pre-treated with or without CXCR4 antagonists were seeded in the upper well and cell migrated by 2 nM SDF-1α. Migrated cells without SDF-1α were used as a negative (0%) and migrated cell induced by SDF-1α as a positive control (100%). […] SupT1 cells were treated with or without CXCR4 antagonists and activated by 50 nM SDF-1α. To directly compare the inhibitory effect of the antagonists on calcium mobilization, the vehicle background and baseline were removed using GraphPad and Origin. The data were averages of at least three independent experiments.
SupT1 cells (2 × 10^6 cells per well in 75 μl) were collected and washed using assay buffer (RPMI 1640 supplemented with 0.5% BSA) and incubated with various concentrations of tested compounds for 30 min in the upper well of the transwell-96 well plates with 5.0 µm pore polycarbonate membrane insert (Corning, U.S.A.). Then, 200 μl assay buffer containing 2 nM SDF-1α was added to the lower well and cells were allowed to migrate for 3 h. Migrated cells were measured using celltiter-96 reagent.

[15] = target: T14, CXCR4; assay: SDF-1α-induced calcium mobilization assay in SupT1 cells (Fluo-4); format: cell-based; set-up: host or cells: SupT1 cells; conditions: 50 nM SDF-1α
Experimental: as §4
SupT1 cells were collected and washed using HHBS buffer (Hanks’ Balanced Salt solution supplemented with 20 mM HEPES) and incubated with 1 mM probenecid (Energy Chemical, China) and 4 μM Fluo-4 (AAT bioquest, U.S.A.) for 37°C for 30 min with vortex every 5 min. After being washed with HHBS, cells were suspended in PBS at 2 × 10^6/ml and seeded 200 μl cells and various concentrations of compounds per well in 96-well plate. Following 50 nM SDF-1α was added to each well, the fluorescence intensity was measured (Ex/Em = 496/516 nm) using EnSpire® multimode plate reader (PerkinElmer, U.S.A.).

Compound	Competitive receptor binding activity, CXCR4 Y45A [1]	Competitive receptor binding activity, CXCR4 D97A [2]	Competitive receptor binding activity, CXCR4 V112A [3]	Competitive receptor binding activity, CXCR4 T117A [4]	Competitive receptor binding activity, CXCR4 W161A [5]	Competitive receptor binding activity, CXCR4 D193A [6]	Competitive receptor binding activity, CXCR4 W195A [7]	Competitive receptor binding activity, CXCR4 H203A [8]	Competitive receptor binding activity, CXCR4 W252A [9]	Competitive receptor binding activity, CXCR4 Y255A [10]	Competitive receptor binding activity, CXCR4 Y256A [11]	Competitive receptor binding activity, CXCR4 D262E [12]	Competitive receptor binding activity, CXCR4 I284A [13]	inhibition at 2 µM ([14]; SUP-T1, at 2 μM) [%]	inhibition at 1 µM ([15]; SUP-T1, at 1 μM) [%]	Inhibition of cell migration ([14]; at 50 nM) [%]	Inhibition of the calcium signal ([15]; at 50 nM) [%]	inhibition at 0.2 µM ([14]; SUP-T1, at 200 nM) [%]	Inhibition of calcium mobilization (in words) ([15]; at 5 nM)
I: [dL]G[dA][dS][dW][dH][dR][dP][dD][dK][dC][dC][dL]G[dY][dQ][dK][dR][dP][dL][dP] / II: [dL]G[dA][dS][dW][dH][dR][dP][dD][dK][dC][dC][dL]G[dY][dQ][dK][dR][dP][dL][dP] (disulfide I:11-II:11, I:12-II:12) [DV1 dimer]	++ (10–29% reduction compared with wild-type CXCR4)	++ (10–29% reduction compared with wild-type CXCR4)	+++	++ (10–29% reduction compared with wild-type CXCR4)	+++	++ (10–29% reduction compared with wild-type CXCR4)	+++	++ (10–29% reduction compared with wild-type CXCR4)	+++	+++	+++	++ (10–29% reduction compared with wild-type CXCR4)	+++	43	75	–	–	–	–
LGASWHRPDKCCLGYQKRPLPQVLLSSWYPTSQLCSKPGVIFLTKRGRQVCADKSKDWVKKLMQQLPVTAR [vMIP-II, viral macrophage-inflammatory protein-II, full-length natural chemokine antagonist produced by human herpesvirus-8; recombinant from Peprotech]	+++	++ (10–29% reduction compared with wild-type CXCR4)	+++	+++	+++	++ (10–29% reduction compared with wild-type CXCR4)	++ (10–29% reduction compared with wild-type CXCR4)	+++	+++	+++	+++	++ (10–29% reduction compared with wild-type CXCR4)	+++	–	–	64	64	–	–
c1cc(CN2CCCNCCNCCCNCC2)ccc1CN1CCCNCCNCCCNCC1 [AMD3100]	++ (10–29% reduction compared with wild-type CXCR4)	++ (10–29% reduction compared with wild-type CXCR4)	+++	+++	+++	++ (10–29% reduction compared with wild-type CXCR4)	+++	+++	+++	++ (10–29% reduction compared with wild-type CXCR4)	+++	+ (30–60% reduction compared with wild-type CXCR4)	+++	–	–	–	–	61	very weak inhibition
